# Like-named read-outs stand apart in the source and are kept apart here.
# Assays:
# [1] = tested on: SM101 E. coli; conditions: previously found; read-out: EC50 proliferation of SM101 E. coli; cited from earlier work
# [2] = tested on: B. subtilis; conditions: previously found; read-out: EC50 proliferation of B. subtilis; cited from earlier work
# [3] = tested on: methicillin-resistant S. aureus; conditions: previously found; read-out: EC50 proliferation of methicillin-resistant S. aureus; cited from earlier work
# [4] = tested on: Acinetobacter baumannii strain 2208 (ATCC 19606); conditions: previously found; read-out: EC50 proliferation of A. baumannii; cited from earlier work
# [5] = tested on: Klebsiella pneumoniae strain NCTC 9633 (ATCC #13883); conditions: previously found; read-out: EC50 proliferation of K. pneumoniae; cited from earlier work
# [6] = biological target: T1, E. coli GroEL/ES (Escherichia coli, UniProt P0A6F5); conditions: read-out: IC50 GroEL/ES-mediated refolding of denatured malate dehydrogenase; previously found; cited from earlier work
# T1 construct: made in house; host or cells: GroEL in NEB 5-alpha E. coli; GroES in E. coli BL21 (DE3)
# T1 sequence (P0A6F5 2-548): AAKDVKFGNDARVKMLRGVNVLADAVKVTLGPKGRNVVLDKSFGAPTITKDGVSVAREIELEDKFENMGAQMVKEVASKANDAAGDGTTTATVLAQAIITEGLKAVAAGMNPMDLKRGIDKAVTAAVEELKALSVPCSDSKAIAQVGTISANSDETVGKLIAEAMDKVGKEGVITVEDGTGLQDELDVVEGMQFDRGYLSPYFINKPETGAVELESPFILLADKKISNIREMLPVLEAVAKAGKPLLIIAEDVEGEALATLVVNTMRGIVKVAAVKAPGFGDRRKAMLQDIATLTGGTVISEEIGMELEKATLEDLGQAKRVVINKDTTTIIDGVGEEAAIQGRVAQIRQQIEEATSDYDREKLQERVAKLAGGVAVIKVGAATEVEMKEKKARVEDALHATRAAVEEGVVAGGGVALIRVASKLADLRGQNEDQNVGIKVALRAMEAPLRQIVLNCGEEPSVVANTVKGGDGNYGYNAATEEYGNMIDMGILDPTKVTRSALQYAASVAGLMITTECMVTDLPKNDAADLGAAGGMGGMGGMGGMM
# [7] = biological target: T1, E. coli GroEL/ES; conditions: read-out: IC50 GroEL/ES-mediated refolding of denatured rhodanese; previously found; cited from earlier work
# [8] = tested on: E. coli and the ESKAPE bacteria; test: bacterial proliferation assays, whole panel (results in words); format: cell-based
# Experimental: All compounds were evaluated for inhibiting the proliferation of E. coli and each of the ESKAPE bacteria. Results presented represent the averages of EC50 values obtained from at least four replicates. Evaluating compounds for inhibition of bacterial cell proliferation.
# Growth Media: E. coli were grown with LB medium and all ESKAPE bacteria were grown in Brain Heart Infusion (BHI) medium (Becton, Dickinson and Company), with all liquid cultures supplemented with 25 mg/L Ca^2+ and 12.5 mg/L Mg^2+ to mimic physiological free concentrations of these cations. A 10 mg/mL Ca^2+ stock solution was prepared by dissolving 1.84 g of CaCl2.2H2O in 50 mL of deionized water, and a 10 mg/mL Mg^2+ stock solution was prepared by dissolving 4.18 g of MgCl2.6H2O in 50 mL deionized water—filter sterilized using 0.2 μm cellulose-acetate filters. 2.5 mL of the sterile 10 mg/mL Ca^2+ stock and 1.25 mL of the sterile 10 mg/mL Mg^2+ stock solutions were added per 1 L of autoclaved LB or BHI media to obtain 25 mg/L Ca^2+ and 12.5 mg/L Mg^2+ ions, respectively.
# General Assay Protocol: Stock bacterial cultures were streaked onto LB or BHI agar plates and grown overnight at 37° C. Fresh aliquots of cation supplemented media were inoculated with single bacterial colonies and the cultures were grown overnight at 37° C. with shaking (240 rpm). […] The cultures were then diluted into fresh media to achieve final OD600 readings of 0.017. […] A second set of baseline control plates were prepared analogously, but without any bacteria added, to correct for possible compound absorbance and/or precipitation. […] Plates were then read at 600 nm using a Molecular Devices SpectraMax Plus384 microplate reader. […]
# Evaluating analogs for inhibiting the growth of E. coli and the ESKAPE bacteria. […] After addition of compounds to cultures, the plates were sealed with Breathe-Easy gas permeable membranes and allowed to grow to mid-log phase (OD600˜0.4-0.6), whereupon final OD600 readings were taken to assess for bacterial growth and inhibition.
# [9] = tested on: nitrofurantoin resistant E. coli; format: cell-based, Escherichia coli
# [10] = tested on: NEB 5-alpha E. coli; test: microbe, parasite or virus in culture; format: cell-based, Escherichia coli; conditions: for resistance of the maximally-resistant strain to its inhibitor after passaging without compound: 4×12 h serial passages without test compounds, then 24 h proliferation assay; for EC50: Escherichia coli, read-out: EC50 plateau after intermediate resistance
# Experimental: Evaluating the ability of E. coli to generate resistance to lead inhibitors. […] NEB 5-alpha E. coli bacteria were streaked onto an LB agar plate and grown overnight at 37° C. […] The overnight cultures were then sub-cultured (10× dilution) into fresh media solutions and grown at 37° C. to mid-log phase, then diluted into fresh media to achieve two separate cultures with final OD600 readings of 0.01. […] Test compounds were evaluated in duplicate with concentration ranges during the resistance assay from 100 μM to 48.8 nM, 2-fold dilution series. […] OD600 readings were taken at the 24 h time point to monitor for bacterial growth. A second baseline control plate was prepared analogously, without any bacteria added, to correct for possible compound absorbance and/or precipitation. For inoculations on subsequent days, bacteria from the wells with the highest test compound concentration where the OD600 was >0.2, were sub-cultured in 5 mL of fresh media at 37° C. until mid-log phase growth was reached. Separate cultures were maintained from this point forward for each of the compound replicates—i.e. 6 cultures continually propagated. The bacteria were then diluted into fresh media to OD600 of 0.01 and the bacteria were propagated again as described above.
# [11] = tested on: compound 17 resistant E. coli
# [12] = tested on: nifuroxazide resistant E. coli; format: cell-based, Escherichia coli
# [13] = E. coli and the ESKAPE pathogens
structure (smiles),measurement,setting,value
"COc1ccc(C(=O)N/N=C/c2ccc(O)c3ncccc23)cc1 [Compound 1, N′-((8-hydroxyquinolin-5-yl)methylene)-4-methoxybenzohydrazide]",EC50,[1],19 µM
same,EC50,[2],83 µM
same,EC50,[3],56 µM
same,EC50,[4],32 µM
same,EC50,[5],95 µM
same,IC50,[6],31 µM
same,IC50,[7],18 µM
"CN(C)c1ccc(C(=O)N/N=C/c2ccc([N+](=O)[O-])o2)cc1 [Compound 21, 4-(dimethylamino)-N′-((5-nitrofuran-2-yl)methylene)benzohydrazide]",antibacterial efficacy in words,[8]; Gram-positive E. faecium and S. aureus,less effective (or inactive)
"O=Cc1ccc([N+](=O)[O-])o1 [Compound 41, reference compound]",antibacterial efficacy in words,[8]; [13],potent inhibitors of nearly all the bacteria (excluding P. aeruginosa)
"O=C(N/N=C/c1ccc([N+](=O)[O-])o1)c1ccc(O)cc1 [Nifuroxazide, reference compound]",response of nitrofurantoin-resistant strains to the other inhibitor,[9],still sensitive
same,resistance of the maximally-resistant strain to its inhibitor after passaging without compound,[10],still resistant
same,EC50,[10],20 to 40 µM
same,17-resistant strains susceptible to the other inhibitor,[11],susceptible
"O=C1CN(/N=C/c2ccc([N+](=O)[O-])o2)C(=O)N1 [Nitrofurantoin, reference compound]",resistance of the maximally-resistant strain to its inhibitor after passaging without compound,[10],still resistant
same,EC50,[10],20 to 40 µM
same,17-resistant strains susceptible to the other inhibitor,[11],not
same,response of nifuroxazide-resistant strains to the other inhibitor,[12],cross-resistant
"O=C(N/N=C/c1ccc([N+](=O)[O-])o1)c1ccc(Cl)s1 [Compound 17, 5-chloro-N′-((5-nitrofuran-2-yl)methylene)thiophene-2-carbohydrazide]",response of nitrofurantoin-resistant strains to the other inhibitor,[9],still sensitive
same,resistance of the maximally-resistant strain to its inhibitor after passaging without compound,[10],still resistant
same,EC50,[10],20 to 40 µM
same,response of nifuroxazide-resistant strains to the other inhibitor,[12],cross-resistant
"O=Cc1ccc(O)c2ncccc12 [Compound 40, reference compound]",antibacterial efficacy in words,[8]; [13],potent inhibitors of nearly all the bacteria (excluding P. aeruginosa)
